Data from article PMC7570859, “Simultaneous Quantification and Pharmacokinetic Study of Five Homologs of Dalbavancin in Rat Plasma Using UHPLC-MS/MS” (Molecules, 2020).
Where two headings read alike, the source gives them in different places.

Key:
[1] = Pharmacokinetic study of dalbavancin components in rat plasma after IV dalbavancin hydrochloride (UHPLC-MS/MS); details: SD rats, IV 40 mg/kg dalbavancin hydrochloride, mean ± SD, n = 10; for AUC(0–t): 0 to 216 h; for AUC(0–t) / AUC(0–∞): UHPLC-MS/MS, non-compartmental; for MRT / half-life / Vd: both, Sprague-Dawley, rat, iv, 40 mg/kg; for MRT: MRT(0–t); for Vd: Vz (apparent volume of distribution)
Method: (§1) A total of 20 animal plasma samples were analyzed using the verified UHPLC-MS/MS detection method to evaluate 28-day multiple-dose pharmacokinetics of dalbavancin hydrochloride injected daily in rats.
(§2) Blood samples were collected and centrifuged (5417R centrifuge, Eppendorf AG, Hamburg, Germany) at 835× g for 10 min to separate the upper plasma. Then, 50 μL of plasma was mixed with 200 μL of methanol (containing dalbavancin B0-D8 isotope internal standard solutions at a concentration of 100 ng/mL), after which the solution was swirled with a multi-tube vortex mixer (Allsheng, Hangzhou, China) for 10 min and centrifuged at 12,000× g for 10 min. To obtain a cleaner supernatant, it was further centrifuged at 12,000× g for 5 min before sample injection.
(§3) The UHPLC system consisted of an ACQUITY UPLC I-Class (Waters Corp., Milford, MA, USA) and separation was achieved on an ACQUITY UPLC BEH C18 (2.1 mm × 100 mm, 1.7 μm, Waters Corp.). The mobile phase contained 0.1% formic acid (phase A) and acetonitrile (phase B), while the gradient elution procedure was as follows; 0.00–1.00 min: 20%B→30%B, 1.00–6.00 min: 30%B→33%B, 6.01–7.00 min: 95%B, 7.00–7.01 min: 95%B→20%B, 7.01–8.00 min: 20%B. The flow rate was 0.300 mL/min, and the sample injection volume was 5.0 μL. The autosampler was maintained at 6 °C.
(§4) The mass spectrometry system used was Xevo TQ triple quadrupole MS/MS (Waters Corp.), equipped with ESI source. After injecting 500 ng/mL of dalbavancin component combined solution and dalbavancin isotope internal standard solution into the mass spectrometer, the optimized parameters of the instrument were obtained as follows: capillary voltage, 3.00 kV; ion source temperature, 150 °C; desolvation gas temperature, 350 °C; collision gas flow rate, 0.15 mL/min; desolvation gas flow rate, 650 L/h. SRM was used for monitoring the positive ion mode and the total analysis run time was 8 min. Data was processed using UNIFI v1.9.3 software (Waters Corp.).
(§5) A total of 20 SD rats (weighing approximately 200 g each) were selected and divided into two equal groups, with each group containing 5 male and 5 female rats. Pharmacokinetic experiments were conducted for single-dose and multiple-dose administration of dalbavancin hydrochloride. The route of administration was IV, with an administration volume of 5 mL/kg and a dosage was 40 mg/kg. Blood sampling time points of the single-dose administration group were before administration (0 h) and 5 min, 3 h, 8 h, 24 h, 72 h, 144 h, and 216 h post administration. Blood was collected on day 28 for the multiple-dose administration group, and the time points of blood collection were the same as those of single-dose administration. The blood samples collected were immediately separated using centrifugation at 12,000× g for 10 min, and then, the plasma were transferred and stored at −16 °C to −24 °C until analysis.
(§6) Microsoft Office Excel 2007 and IBM SPSS Statistics 19.0 were used for data processing and statistical calculation using two-tailed Student’s t-test. Data Analysis System 3.1 software (DAS, Shanghai, China) was used to analyze and calculate AUC(0–∞), T1/2, Cmax and other parameters using the non-compartmental model.

[2] = rat, in vivo, iv, 40 mg/kg
Method: as §1, §2, §3, §4, §5, §6

[3] = in vivo; cited from earlier work
[4] = D28, multiple-dose group, daily for 28 days
[5] = T1/2, D28, multiple-dose group, daily for 28 days

Compound	AUC(0–t) ([1]; D1, single-dose group)	AUC(0–∞) ([1]; D1, single-dose group)	Cmax ([1]; D1, single-dose group)	Vz (apparent volume of distribution) ([1]; D1, single-dose group)	MRT ([1]; D1, single-dose group)	MRT [1, 4]	half-life ([1]; T1/2, D1, single-dose group)	Vd [1, 4]	half-life [1, 5]	MRT(0–t) ([2]; both, Sprague-Dawley)	T1/2 ([2]; both, Sprague-Dawley)	Vz (apparent volume of distribution) ([2]; both, Sprague-Dawley)	AUC(0–t) [2]	AUC(0–∞) [2]	Cmax [2]	plasma AUC(0–∞) relative to the other components combined [2]	Vd ([1]; D1, single-dose group)	adverse event: diarrhea [3]	adverse event: headache [3]	adverse event: nausea [3]
CN[C@H]1C(=O)N[C@@H]2Cc3ccc(cc3)Oc3cc4cc(c3O[C@@H]3O[C@H](C(=O)O)[C@@H](O)[C@H](O)[C@H]3NC(=O)CCCCCCCC(C)C)Oc3ccc(cc3Cl)[C@@H](O)[C@@H]3NC(=O)[C@H](NC(=O)[C@@H]4NC(=O)[C@@H](NC2=O)c2cc(cc(O)c2Cl)Oc2cc1ccc2O)c1ccc(O)c(c1)-c1c(O[C@H]2O[C@H](CO)[C@@H](O)[C@H](O)[C@@H]2O)cc(O)cc1[C@@H](C(=O)NCCCN(C)C)NC3=O [A0]	10.5 ± 2.6 µg·h/mL	11.8 ± 2.6 µg·h/mL	1800 ± 200 ng/mL	32.9 ± 5.7 L/kg	5.6 ± 0.3 h	60.7 ± 2.7 h	6.5 ± 0.6 h	196 ± 27.3 L/kg												
CCCCCCCCCCC(=O)N[C@H]1[C@H](Oc2c3cc4cc2Oc2ccc(cc2Cl)[C@@H](O)[C@@H]2NC(=O)[C@H](NC(=O)[C@@H]4NC(=O)[C@H]4NC(=O)[C@@H](Cc5ccc(cc5)O3)NC(=O)[C@H](NC)c3ccc(O)c(c3)Oc3cc(O)c(Cl)c4c3)c3ccc(O)c(c3)-c3c(O[C@H]4O[C@H](CO)[C@@H](O)[C@H](O)[C@@H]4O)cc(O)cc3[C@@H](C(=O)NCCCN(C)C)NC2=O)O[C@H](C(=O)O)[C@@H](O)[C@@H]1O [A1]	155.4 ± 79.9 µg·h/mL	173.1 ± 65.6 µg·h/mL	14800 ± 6100 ng/mL	9.4 ± 3.3 L/kg	17 ± 3.8 h	53 ± 5.2 h	27.5 ± 11.4 h	10.1 ± 1.3 L/kg	110 ± 10.6 h											
CN[C@H]1C(=O)N[C@@H]2Cc3ccc(cc3)Oc3cc4cc(c3O[C@@H]3O[C@H](C(=O)O)[C@@H](O)[C@H](O)[C@H]3NC(=O)CCCCCCCCC(C)C)Oc3ccc(cc3Cl)[C@@H](O)[C@@H]3NC(=O)[C@H](NC(=O)[C@@H]4NC(=O)[C@@H](NC2=O)c2cc(cc(O)c2Cl)Oc2cc1ccc2O)c1ccc(O)c(c1)-c1c(O[C@H]2O[C@H](CO)[C@@H](O)[C@H](O)[C@@H]2O)cc(O)cc1[C@@H](C(=O)NCCCN(C)C)NC3=O [B0]										23.0 ± 0.9 h	74.6 ± 45.9 h	0.7 ± 0.5 L/kg	5776.5 ± 2593.2 µg·h/mL	6566.7 ± 1820.3 µg·h/mL	437300 ± 160300 ng/mL	approximately 5.8 times				
CCCCCCCCCCCC(=O)N[C@H]1[C@H](Oc2c3cc4cc2Oc2ccc(cc2Cl)[C@@H](O)[C@@H]2NC(=O)[C@H](NC(=O)[C@@H]4NC(=O)[C@H]4NC(=O)[C@@H](Cc5ccc(cc5)O3)NC(=O)[C@H](NC)c3ccc(O)c(c3)Oc3cc(O)c(Cl)c4c3)c3ccc(O)c(c3)-c3c(O[C@H]4O[C@H](CO)[C@@H](O)[C@H](O)[C@@H]4O)cc(O)cc3[C@@H](C(=O)NCCCN(C)C)NC2=O)O[C@H](C(=O)O)[C@@H](O)[C@@H]1O [B1]	688.2 ± 272.2 µg·h/mL	756.2 ± 191.4 µg·h/mL	42900 ± 18900 ng/mL		32.3 ± 1.5 h	68.6 ± 8.2 h	29.1 ± 1.1 h	1.2 ± 0.4 L/kg	87 ± 27.5 h								2.3 ± 0.4 L/kg			
CC(C)CCCCCCCCC(=O)N[C@H]1[C@H](Oc2c3cc4cc2Oc2ccc(cc2Cl)[C@@H](O)[C@@H]2NC(=O)[C@H](NC(=O)[C@@H]4NC(=O)[C@H]4NC(=O)[C@@H](Cc5ccc(cc5)O3)NC(=O)[C@H](N(C)C)c3ccc(O)c(c3)Oc3cc(O)c(Cl)c4c3)c3ccc(O)c(c3)-c3c(O[C@H]4O[C@H](CO)[C@@H](O)[C@H](O)[C@@H]4O)cc(O)cc3[C@@H](C(=O)NCCCN(C)C)NC2=O)O[C@H](C(=O)O)[C@@H](O)[C@@H]1O [B2]	163.7 ± 79.5 µg·h/mL	187.2 ± 61.2 µg·h/mL	23400 ± 10400 ng/mL		16.2 ± 2.4 h	55.7 ± 4.7 h	87.3 ± 68.9 h	13.5 ± 3.4 L/kg	153 ± 43 h								28 ± 23 L/kg			
Dalbavancin																		4.4%	4.7%	5.5%
